Data taken from article PMC8512147, “Multifunctional Small Molecules as Potential Anti-Alzheimer’s Disease Agents” (Molecules, 2021).
Where two headings read alike, the source gives them in different places.

What was measured:
[1] = design: method as in PMID 25994066; details: DPPH method; read-out: Radical Scavenging Activity (EC50); cited from earlier work
[2] = Radical scavenging activity, DPPH method; format: biochemical; details: MeOH, 30 min, r.t., mean ± SD of 3 independent experiments
From the text: Commercial ferulic acid (FA) and all the newly synthesized compounds 1a–e were studied for their radical scavenging activity, following the protocol previously reported. The activity of each compound is expressed as EC50 and is related to its interaction with the free stable radical 2,2-diphenyl-1-picrylhydrazyl (DPPH•).
For the physicochemical and biological studies, analytical grade reagents and solvents were supplied by Sigma-Aldrich (St. Louis, MO, USA), Fluka (Buchs, Switzerland) and Acros (Geel, Belgium). They were used as received without any purification. The antioxidant activity assay was performed in a quartz cell of 1 cm path length with a Perkin-Elmer Lambda 35 UV–Vis spectrophotometer equipped with a temperature programmer PTP1+1 Peltier System (T = 25.0 ± 0.1 °C).
Compounds were evaluated for their radical scavenging activity by the Blois method using DPPH (2,2-diphenyl-1-picrylhydrazyl), a stable free-radical. It absorbs in methanol solution at 517–520 nm and it is a scavenger for other radicals converting itself in the reduced form DPPHH. The assay consists of preparing solutions of increasing concentration of each compound starting from a stock solution (2–3 × 10^−4 M), adding to them 2.5 mL DPPH (0.002% in MeOH, 50–100 µM) and the necessary volume of MeOH to reach the final volume 3.5 mL for each sample. The control sample was made up of DPPH and MeOH. Solutions were protected from light at r.t. for 30 min and then absorbance was measured at 517 nm with a Perkin Elmer Lambda 35 UV–Vis spectrophotometer, using methanolic solution as the blank in the other cell. All the studied compounds have good solubility in MeOH, so their solutions could be prepared. The assay was repeated three times for all compounds and the antioxidant activity, expressed as EC50, was calculated by Equation (1). %AA = ((ADPPH − Asample)/ADPPH) × 100,(1)

Aβ1–42 peptide [3] = molecular target: T1, Aβ1–42 peptide (Homo sapiens, UniProt P05067); experiment: Inhibition of self-mediated Aβ1–42 aggregation, Thioflavin T fluorescence assay; format: biochemical; design: Amyloid-β peptide (1–42) was purchased from GeneCust; purchased GeneCust; details: read-out: Inhibition of Aβ1–42 Aggregation (%) Self-Aβ Aggr.
T1 sequence (P05067 672-713): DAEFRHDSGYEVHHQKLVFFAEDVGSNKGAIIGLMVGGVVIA
Procedure: (§1) The studied compounds (1a–e) were tested in vitro to evaluate their activity as inhibitors of Aβ1-42 peptide aggregation, through the Thioflavin T (ThT) fluorescence assay. This method is based on the strong ability of the dye ThT to bind β-amyloid fibrils and oligomers through ionic and hydrophobic interactions, while its interaction with β-amyloid monomers is extremely weak. The intercalation of compounds in the β-sheet structure of amyloid protein may prevent fibrils aggregation and ThT binding, and it is evaluated by fluorimetry. The fluorescence emission measurements were performed after overnight incubation of the self-mediated or Cu^2+-induced Aβ fibril aggregates with the studied compounds.
(§2) The inhibition of β-amyloid (Aβ) aggregation was studied through the Th-T fluorescence assay, which was performed using a Varian Cary Eclipse fluorimeter at the following wavelengths: excitation (446 nm) and emission (485 nm). Amyloid-β peptide (1–42) was purchased from GeneCust as lyophilized powder stored at −20 °C.
(§3) The method used is based on thioflavin T (ThT) fluorescence emission, which depends on the interaction of this dye with Aβ fibrils. The assay is performed with the Aβ1–42 peptide sample, which was previously prepared by solubilization of its lyophilized powder in 1,1,1,3,3,3–hexafluoro-2-propanol (HFIP), an organic solvent useful to solubilize and monomerize the β-sheets protein aggregates. After 24 h, the solution was divided into Eppendorf tubes kept in ice, and then, HFIP was left to evaporate overnight (T = 25 °C). The resultant films were stored in the freezer. […] Compounds were dissolved in MeOH (1 mg/mL) and diluted with phosphate buffer to reach a ligand stock solution of 480 μM. Two different types of experiments were prepared in a final volume of 60 μL: control ligand assays (Aβ1–42 aggregation in the absence of inhibitor) and ligand assays (effect of ligand on Aβ1–42 aggregation). For each experiment, a blank sample without Aβ1–42 was used to monitor the effect of the compounds in fluorescence. To study the inhibition of aggregation in the presence of Cu^2+, which is known to promote it, an intermediate stock solution of CuCl2 in phosphate buffer (240 µM) was prepared. Then, it was aliquoted to obtain a final concentration of 40 µM in the samples. All samples were incubated in a water bath for 24 h at 37 °C. Then, 180 µL of ThT (5 µM) in glycine-NaOH buffer (50 mM, pH = 8.5) is added to each solution and 200 µL of it is placed in a 96-well plate (BD Falcon) to be read with the fluorimeter. After 5 min of incubation with ThT, fluorescence was measured at 446 nm (ʎ excitation) and 485 nm (ʎ emission).

Aβ1–42 peptide [4] = molecular target: T1, Aβ1–42 peptide; experiment: Inhibition of Cu^2+-induced Aβ1–42 aggregation, Thioflavin T fluorescence assay; format: biochemical; design: Amyloid-β peptide (1–42) was purchased from GeneCust; purchased GeneCust; details: compounds 80 μM, with copper 40 μM; ThT fluorescence; mean of two independent measurements in duplicate; read-out: Inhibition of Aβ1–42 Aggregation (%) Cu-Induced Aβ Aggr.
Procedure: as §1, §2, §3

[5] = Fe^3+ complexation, potentiometric / spectrophotometric titration; format: physicochemical
From the text: (§4) The chelating ability of FA and of selected compounds 1a and 1d was studied by using the same experimental techniques (potentiometry, UV–Vis spectrophotometry) and experimental medium used for the titration of the ligand alone (20% w/w DMSO/water).
(§5) Alterations in the deprotonation profiles of the ligand titration curves due to the presence of the metal ions are evident in Figure 2, since the curves for the M/L systems appear well below that of FA for a > −1 (M = Fe) or a > 0 (M = Cu). This evidence supports the formation of metal complexes with the deprotonated (L^−) and mono-protonated (HL) forms of the ligand, whose stability order (Fe > Cu) follows the expected trend. Equilibrium models obtained from the fitting analysis of the potentiometric curves (M = Fe, Cu) and the UV–Vis spectral data (M = Fe, Cu) are reported in Table 2.
(§6) Both compounds 1a and 1d have similar chelating capacities towards iron and copper, which are also analogous to those of FA.
(§7) As concerns the metal chelation studies, potassium hydrogen phthalate (C8H5KO4, p.a.) was acquired from BDH, whereas dimethylsulfoxide (DMSO, dried, p.a.) and potassium chloride (KCl, p.a.) were supplied by Sigma-Aldrich. Aqueous solutions of metal ions were prepared starting from 1000 ppm standards (Titrisol, Sigma-Aldrich), to obtain solutions FeCl3 0.018 M and CuCl2 0.015 M. The metal content of solutions was evaluated by atomic absorption. Iron stock solution was prepared with an excess of acid chloride to avoid hydrolysis and its concentration in HCl was determined by the usual standard-addition method using 0.1M HCl (Titrisol). The 0.1M HCl solution, used in calibration of the glass electrode and in spectrophotometric titrations, was prepared from a Titrisol ampoule. The titrant was prepared from carbonate free commercial concentrate (Titrisol, KOH 0.1 M ampoules). The KOH solution was standardized by titration with a solution of potassium hydrogen phthalate using Gran’s method and it was rejected when the percentage of carbonate was greater than 0.5% of the total amount of base. The potentiometric studies were performed with an automated potentiometric apparatus controlled by PASAT program and containing a Crison micropH 2002 millivoltmeter, a Crison microBu 2031 burette and a Haake thermostatic bath (T = 25.0 ± 0.1 °C). The spectrophotometric titrations were carried out with a Perkin-Elmer Lambda 35 spectrophotometer.
(§8) Both glass and Ag/AgCl reference electrodes were previously conditioned in different DMSO/H2O mixtures of increasing DMSO % concentration and the response of the glass electrode was evaluated by strong acid–strong base (HCl/KOH) calibrations with the determination of the Nernst parameters by Gran’s method. […] The spectrophotometric measurements were carried out in a 250–450 nm wavelength range at pH ca. 2.5–11.8. Under the stated experimental conditions, the pKw value (14.27) was determined and subsequently used in the computations. The stepwise protonation constants of the ligands, Ki = [HiL]/[Hi-1L][H], and the overall metal complex stability constants, β (MmHhLl) = [MmHhLl]/[M]^m[H]^h[L]^l, were calculated by fitting the pH-potentiometric and spectrophotometric data with, respectively, the Hyperquad 2008 [41] and Psequad programs. The metal hydrolysis model was determined under the defined experimental conditions (I = 0.1 M KCl, 20% w/w DMSO/H2O, T = 25.0 ± 0.1 °C) and the following values of stability constants were included in the fitting of experimental data towards the equilibrium models related to the Fe^3+/L and Cu^2+/L systems: log β (FeH-2) = −6.78, log β (FeH-3) = −10.78; log β (Cu2H-2) = −9.94. The species distribution curves were obtained with the Hyss program.

[6] = Cu^2+ complexation, potentiometric / spectrophotometric titration; format: physicochemical
From the text: as §4, §5, §6, §7, §8

[7] = design: method as in doi:10.1039/C7NJ00661F, doi:10.1016/j.tca.2004.06.016, doi:10.1021/je101075q; details: aqueous medium and/or different ionic strength; cited from earlier work
Aβ1–42 peptide [8] = molecular target: T1, Aβ1–42 peptide; details: cited from earlier work
[9] = compounds 80 μM, without copper, ThT fluorescence, mean of two independent measurements in duplicate
[10] = T = 25.0 ± 0.1 °C, I = 0.1 M KCl, 20% w/w DMSO/water, pH-potentiometric (FA), UV–Vis (1a, 1d)
[11] = T = 25.0 ± 0.1 °C, I = 0.1 M KCl, 20% w/w DMSO/water, pH-potentiometric data
[12] = pH 7.4, CL/CM = 10, CM = 10^−6 M

O=C1O[C@H]([C@@H](O)CO)C(O)=C1O [Ascorbic acid]
EC50 [1]: 25 ± 1 µM

COc1cccc(CONC(=O)/C=C/c2ccc(O)c(OC)c2)c1 [Compound 1b, (E)-3-(4-hydroxy-3-methoxyphenyl)-N-((3-methoxybenzyl)oxy)acrylamide]
EC50 [2]: 40 ± 2 µM
melting point: 63 to 65 °C
inhibition at 80 µM (Aβ1–42 peptide [3]; [9]): 52.8%
inhibition at 80 µM (Aβ1–42 peptide [4]): 69.5%

COc1cc(/C=C/C(=O)NOCc2ccccc2C(F)(F)F)ccc1O [Compound 1c, (E)-3-(4-hydroxy-3-methoxyphenyl)-N-((2-(trifluoromethyl)benzyl)oxy)acrylamide]
EC50 [2]: 34 ± 1 µM
melting point: 76 to 77 °C
inhibition at 80 µM (Aβ1–42 peptide [3]; [9]): 51%
inhibition at 80 µM (Aβ1–42 peptide [4]): 68.8%

COc1cc(/C=C/C(=O)NOCc2ccc(Cl)cc2Cl)ccc1O [Compound 1e, (E)-N-((2,4-dichlorobenzyl)oxy)-3-(4-hydroxy-3-methoxyphenyl)acrylamide]
EC50 [2]: 32 ± 3 µM
melting point: 164.3 to 166.5 °C
inhibition at 80 µM (Aβ1–42 peptide [3]; [9]): 28.3%
inhibition at 80 µM (Aβ1–42 peptide [4]): 77%

COc1cc(/C=C/C(=O)O)ccc1O [FA, (E)-4-hydroxy-3-methoxy cinnamic acid, reference compound]
EC50 [2]: 36 ± 2 µM
log β (FemHhLl), species (1–22) ([5]; T = 25.0 ± 0.1 °C, I = 0.1 M KCl, 20% w/w DMSO/water): 7.81(8)
log β (FemHhLl), species (101) [5, 10]: 12.15(6)
log β (FemHhLl), species (102) [5, 10]: 20.31(6)
log β (FemHhLl), species (103) [5, 11]: 26.70(8)
pM (Fe^3+), pM = −log [M] [5, 12]: 17.4
free iron in the Fe^3+/L system ([5]; pH ca. 2, species distribution): ca. 90%
log β (CumHhLl), species (1–12) [6, 10]: 1.90(8)
log β (CumHhLl), species (101) [6, 10]: 6.52(8)
log β (CumHhLl), species (102) ([6]; T = 25.0 ± 0.1 °C, I = 0.1 M KCl, 20% w/w DMSO/water, pH-potentiometric (FA), UV–Vis (1d)): 11.14(6)
log β (CumHhLl), species (111) [6, 11]: 13.30(4)
pM (Cu^2+), pM = −log [M] [6, 12]: 6.2
log K1 previously reported [7]: 8.77–8.94
log K2 previously reported [7]: 4.46–4.56

Nc1c2c(nc3ccccc13)CCCC2 [Tacrine, reference compound]
Inhibition of Aβ1–42 Aggregation (%) Self-Aβ Aggr. (Aβ1–42 peptide [8]): 22.8%
inhibition at 80 µM (Aβ1–42 peptide [3]): 21.5%
